Results reported in the supplement of paper PMC11451515.

Test system: P12-Ichikawa
Test: cell viability relative to DMSO control; higher = less cytotoxic
Details: 48 h
Method in brief: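 Library compounds in DMSO were pin-dosed in an 11-point threefold series (47 μM to 0.79 nM) onto leukemia cells in 1536-well plates (5 μl). Plates held 500 cells/well of NOMO1 or SEM or 1000 cells/well of P12-Ichikawa, each adapted for at least four passages in each medium. Luminescence was read with CellTiter-Glo One after 48 h at 37°C. Viability means the per-plate percentage relative to DMSO wells, using cell-free wells as background.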

[1] = HPLM + 10% dialyzed FBS, 0.000781 µM
[2] = HPLM + 10% dialyzed FBS, 0.00234 µM
[3] = HPLM + 10% dialyzed FBS, 0.0211 µM
[4] = HPLM + 10% dialyzed FBS, 0.0632 µM
[5] = HPLM + 10% dialyzed FBS, 0.19 µM
[6] = HPLM + 10% dialyzed FBS, 0.569 µM
[7] = HPLM + 10% dialyzed FBS, 1.71 µM
[8] = HPLM + 10% dialyzed FBS, 5.12 µM
[9] = HPLM + 10% dialyzed FBS, 15.4 µM
[10] = HPLM + 10% dialyzed FBS, 46.1 µM
[11] = RPMI 5 mM glucose + 10% FBS, 0.000781 µM
[12] = RPMI 5 mM glucose + 10% FBS, 0.00234 µM
[13] = RPMI 5 mM glucose + 10% FBS, 0.00702 µM
[14] = RPMI 5 mM glucose + 10% FBS, 0.0211 µM
[15] = RPMI 5 mM glucose + 10% FBS, 0.0632 µM
[16] = RPMI 5 mM glucose + 10% FBS, 0.19 µM
[17] = RPMI 5 mM glucose + 10% FBS, 0.569 µM
[18] = RPMI 5 mM glucose + 10% FBS, 1.71 µM
[19] = RPMI 5 mM glucose + 10% FBS, 5.12 µM
[20] = RPMI 5 mM glucose + 10% FBS, 15.4 µM
[21] = RPMI 5 mM glucose + 10% FBS, 46.1 µM
[22] = RPMI 5 mM glucose + 10% dialyzed FBS, 0.000781 µM
[23] = RPMI 5 mM glucose + 10% dialyzed FBS, 0.00234 µM
[24] = RPMI 5 mM glucose + 10% dialyzed FBS, 0.00702 µM
[25] = RPMI 5 mM glucose + 10% dialyzed FBS, 0.0211 µM
[26] = RPMI 5 mM glucose + 10% dialyzed FBS, 0.0632 µM
[27] = RPMI 5 mM glucose + 10% dialyzed FBS, 0.19 µM
[28] = RPMI 5 mM glucose + 10% dialyzed FBS, 0.569 µM
[29] = RPMI 5 mM glucose + 10% dialyzed FBS, 1.71 µM
[30] = RPMI 5 mM glucose + 10% dialyzed FBS, 5.12 µM
[31] = RPMI 5 mM glucose + 10% dialyzed FBS, 15.4 µM
[32] = RPMI 5 mM glucose + 10% dialyzed FBS, 46.1 µM
[33] = HPLM + 10% dialyzed FBS, 0.00702 µM

| Structure (SMILES) | cell viability [1] [%] | cell viability [2] [%] | cell viability [3] [%] | cell viability [4] [%] | cell viability [5] [%] | cell viability [6] [%] | cell viability [7] [%] | cell viability [8] [%] | cell viability [9] [%] | cell viability [10] [%] | cell viability [11] [%] | cell viability [12] [%] | cell viability [13] [%] | cell viability [14] [%] | cell viability [15] [%] | cell viability [16] [%] | cell viability [17] [%] | cell viability [18] [%] | cell viability [19] [%] | cell viability [20] [%] | cell viability [21] [%] | cell viability [22] [%] | cell viability [23] [%] | cell viability [24] [%] | cell viability [25] [%] | cell viability [26] [%] | cell viability [27] [%] | cell viability [28] [%] | cell viability [29] [%] | cell viability [30] [%] | cell viability [31] [%] | cell viability [32] [%] | cell viability [33] [%] |
| --- | --- | --- | --- | --- | --- | --- | --- | --- | --- | --- | --- | --- | --- | --- | --- | --- | --- | --- | --- | --- | --- | --- | --- | --- | --- | --- | --- | --- | --- | --- | --- | --- | --- |
| O=C(O)CCn1c2c(c3ccccc31)C[C@H](N[S+](=O)([O-])c1ccc(F)cc1)CC2 | 117 | 113 | 110 | 113 | 106 | 113 | 111 | 106 | 100 | 73.6 | 119 | 120 | 121 | 121 | 120 | 122 | 122 | 111 | 114 | 115 | 95.5 | 110 | 116 | 116 | 114 | 115 | 103 | 109 | 108 | 102 | 92.2 | 66.9 | – |
| Cc1[nH]c(/C=C2\C(=O)Nc3ccccc32)c(C)c1CCC(=O)O | 95.3 | 101 | 105 | 111 | 114 | 88.7 | 104 | 73.1 | 32.2 | 6.87 | 105 | 103 | 93.9 | 110 | 110 | 118 | 87.1 | 106 | 72.9 | 42 | 7.11 | 102 | 105 | 113 | 110 | 113 | 112 | 91.1 | 101 | 82.3 | 65.2 | 11.2 | 99.3 |
| CN[C@@H]1Cc2cccc3[nH]c(=O)n(c23)C1 | 124 | 123 | 115 | 122 | 117 | 108 | 117 | 108 | 106 | 111 | – | – | – | – | – | – | – | – | – | – | – | 122 | 122 | 116 | 130 | 117 | 123 | 115 | 109 | 108 | 111 | 105 | 114 |
| Cc1csc(NC(=O)c2sc3nc4c(c(C(F)(F)F)c3c2N)CCC4)n1 | 88.3 | 102 | 98 | 94.4 | 93.8 | 95 | 91.3 | 90.3 | 84.5 | 83.4 | 87.2 | 100 | 94 | 92.1 | 88.6 | 91.1 | 98.7 | 90.1 | 88.1 | 79.2 | 86.5 | 82.7 | 83.3 | 81.6 | 84.3 | 89.4 | 86.4 | 88.6 | 78.2 | 84.9 | 69.9 | 73.6 | 98.1 |
| CC1(C)CNc2cc(NC(=O)c3cccnc3NCc3ccncc3)ccc21 | 120 | 115 | 121 | 128 | 116 | 117 | 118 | 112 | 110 | 101 | 127 | 117 | 122 | 116 | 115 | 106 | 119 | 117 | 111 | 105 | 107 | 121 | 124 | 128 | 121 | 120 | 120 | 123 | 112 | 113 | 113 | 96.1 | 125 |
| OC(=O)C(CC/1=C/C(=O)NC2=CC=CC=C12)NC(=O)C3=CC=C(Cl)C=C3 (stereo not given) | 111 | 118 | 123 | 123 | 125 | 124 | 128 | 122 | 126 | 125 | 109 | 115 | 119 | 117 | 131 | 122 | 128 | 121 | 128 | 132 | 141 | 120 | 122 | 129 | 130 | 139 | 135 | 135 | 128 | 130 | 124 | 133 | 120 |
| COc1ccc(C2Sc3ccccc3N(CCN(C)C)C(=O)C2OC(C)=O)cc1 (stereo not given) | 102 | 115 | 108 | 112 | 121 | 112 | 102 | 109 | 112 | 93.9 | 101 | 112 | 110 | 108 | 104 | 112 | 110 | 107 | 99.8 | 103 | 98.3 | 122 | 108 | 108 | 112 | 113 | 112 | 110 | 109 | 104 | 105 | 92.8 | 103 |
| C[C@@H](NC(=O)c1ncnc(N)c1Cl)c1ncc(C(=O)Nc2cc(C(F)(F)F)c(Cl)cn2)s1 | 124 | 119 | 123 | 120 | 122 | 116 | 115 | 116 | 104 | 92.7 | – | – | – | – | – | – | – | – | – | – | – | – | – | – | – | – | – | – | – | – | – | – | 121 |
